Results taken from patent publication US10458996B1, “Methods for determining clinical response to TNF-alpha and/or JAK inhibitors in subjects with inflammatory diseases” (Beth Israel Deaconess Medical Center, Inc., priority 2016, dated 2019).

Assays:
[1] = system: patients with moderate-to-severe CD; conditions: week 24 of intervention; cited from earlier work
[2] = system: biopsy samples from patients with IBD; experiment: Cytokine profiles of patient biopsy cultures in response to treatment with various agents (Example 2); format: cell-based, human
Description: From each patient, intestinal mucosal biopsies were minced into several pieces and distributed in 8 wells of a 96-well plate in 250 μl of Dulbecco's Modified Eagle Medium (DMEM) supplemented with 10% FBS and antibiotic-antimycotic (Life Technologies, CA). Half of the cultures were treated with infliximab (REMICADE®; 0.5 mg/ml; Janssen Biotech, Inc, NJ) and the plate was incubated at 37° C. in a humidified chamber of 95% O2/5% CO2 for 18 hours. Culture supernatants were collected, filtered and stored at −80° C. […] Signal detection and analysis was performed by MAGPIX® (Luminex Corporation, TX).
[…] with 0.5 mg/ml infliximab (an anti-TNFα antibody; therapeutic agent), 100 μM tofacitinib (a Janus kinase (JAK) inhibitor) and an experimental drug (at 10 μM concentration) in accordance with the protocol described above. Following treatment, biopsy samples were obtained and analyzed for cytokine profiles using […].
Additional similar experiments were conducted for different patients using the same or different therapeutic agents, and the results are shown in FIG. 5D-5H.

SMILES | Mucosal healing rates [1] [%] | cytokines with levels significantly elevated ([2]; 100 μM, non-responder group (FIG. 5B)) | cytokines with attenuation in levels ([2]; 100 μM, non-responders (FIG. 5B)) | cytokines with levels significantly attenuated ([2]; 100 μM, responders (FIG. 5B)) | changes in cytokine profile ([2]; patient ID 13-394 (FIG. 5E)) | ex vivo response of patient ([2]; patient ID 13-394 (FIG. 5E))
Cn1cnc([N+](=O)[O-])c1Sc1ncnc2nc[nH]c12 [azathioprine] | 16.5 |  |  |  |  | 
C[C@@H]1CCN(C(=O)CC#N)C[C@@H]1N(C)c1ncnc2[nH]ccc12 [tofacitinib] |  | IL-12p40, IL-12p70, IL-13, IL-17A, IL-2, IL-4, IL-5, and IL-7 | MCP-1 and TNFα | IL-6, IL-8, MCP-1, and TNFα | three cytokine expression down-regulation | ex vivo responder
